Measurements from patent publication US8497083B2, “Fructosyl amino acid oxidase” (priority 2009, dated 2013).

Target: fructosyl amino acid oxidase from Phaeosphaeria nodorum (PnFPOX, SEQ ID NO: 1) variant N56A (Parastagonospora nodorum, UniProt Q0UIL6, N56A)
Assay: Oxidase activity kinetics (4AA/TODB/POD), PnFPOX N56A mutant
Type: biochemical
Conditions: purified enzyme, 25° C., pH 7.0
From the text: As used herein “oxidase activity” is an enzymatic activity (Vmax) of the fructosyl amino acid oxidase to catalyze oxidation of fructosyl amino acid to generate 2-keto-D-glucose and the corresponding amino acid while utilizing oxygen as an electron acceptor. The oxidase activity may be assayed by measuring the amount of generated H2O2 by any methods known in the art, including by way of non-limiting example, reagents for H2O2 detection such as […] (4-aminoantipyrine/N,N-Bis(4-sulfobutyl)-3-methylaniline disodium salt/horseradish peroxidase) or by Pt electrode. As used herein in the context of the relative or quantitative activity, the oxidase activity is specifically defined to be the mole amount of the substrate (fructosyl amino acid) oxidized per unit time measured by the amount of generated H2O2 at 25° C. in 10 mM PPB, pH 7.0, 1.5 mM TODB, 2 U/ml horseradish peroxidase (POD), and 1.5 mM 4-aminoantipyrine (4AA). The formation of quinoneimine dye may be measured spectrophotometrically at 546 nm.
Escherichia coli BL21 (DE3) cells harboring expression vectors of N1-1 FAOD (SEQ ID NO: 2) mutants were grown in 150 ml of LB medium containing 50 μg/ml kanamycin at 37° C. After reaching an A660 value of 0.6, 0.3 mM IPTG was added and incubated at 25° C. for an additional 5 hours. The cells were collected by centrifugation and washed twice with 0.85% NaCl.aq. Then, the cells were resuspended in 10 mM Potassium Phosphate Buffer (PPB) pH 7.0 and lysed by ultrasonic homogenizer. The lysate was centrifuged at 10,000×g, 4° C. for 10 min, and the supernatant was centrifuged at 50,000 rpm, 4° C. for 60 min, then the supernatant was dialyzed against 10 mM PPB (pH 7.0). The oxidase activity was assayed at 25° C. in 10 mM PPB, pH 7.0, 1.5 mM TODB, 2 U/ml horseradish peroxidase (POD), and 1.5 mM 4-aminoantipyrine (4AA) in the presence of substrates (0.2, 0.5, 0.75, 1, 2, 5 mM f-^αVal […]). The formation of quinoneimine dye was measured spectrophotometrically at 546 nm. The dehydrogenase activity was assayed at 25° C. in 10 mM PPB (pH 7.0), 0.6 mM DCIP, and 6 mM methoxy PMS (mPMS) in the presence of substrates (0.2, 0.5, 1, 2, 5 mM f-^αVal or 5 mM f-^αVal-His).
Mutations were introduced using site-directed mutagenesis as in Example 1, and BL21 (DE3) cells were transformed with an expression vector containing wild-type or mutant PnFPOX (SEQ ID NO: 1). The cultured cells were resuspended in 10 mM PPB, pH 7.0, and lysed by sonication. The lysate was centrifuged at 10,000 g at 4° C. for 20 min, and the supernatant was centrifuged at 50,000 rpm at 4° C. for 60 min. The oxidase and dehydrogenase activities were measured as in Example 1.
BL21 (DE3) transformed with pEPN (pET28a-PnFPOX)-N56A was grown aerobically at 37° C. in LB medium (2 l) containing 50 μg kanamycin ml^−1. […]

fructosyl amino acid oxidase from Phaeosphaeria nodorum (PnFPOX, SEQ ID NO: 1) variant N56A, sequence (Q0UIL6 whole entry N56A): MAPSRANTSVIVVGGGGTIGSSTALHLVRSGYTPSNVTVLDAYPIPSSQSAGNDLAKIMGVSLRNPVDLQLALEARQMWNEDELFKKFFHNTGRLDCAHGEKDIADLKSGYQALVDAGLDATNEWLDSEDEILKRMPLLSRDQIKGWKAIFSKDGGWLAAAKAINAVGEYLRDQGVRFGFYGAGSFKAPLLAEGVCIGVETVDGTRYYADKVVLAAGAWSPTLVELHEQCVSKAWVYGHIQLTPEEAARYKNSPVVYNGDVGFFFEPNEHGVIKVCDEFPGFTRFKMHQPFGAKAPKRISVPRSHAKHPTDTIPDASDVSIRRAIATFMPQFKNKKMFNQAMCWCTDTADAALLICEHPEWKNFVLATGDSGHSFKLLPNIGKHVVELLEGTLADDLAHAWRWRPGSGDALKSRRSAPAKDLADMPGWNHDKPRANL

Q: `CC(C)[C@H](NCC1(O)OC[C@@H](O)[C@@H](O)[C@@H]1O)C(=O)O` (stereo partly shown) [f-αVal, fructosyl valine] was tested. Which Vmax did it give?
A: Its Vmax is 4.39 U/mg.
